Measured values reported in US5650430A, “Radicicol derivatives, their preparation and their anti-tumor activity” (Sankyo Company, Limited, priority 1990, dated 1997).
Where two headings read alike, the source gives them in different places.

Legend:
mouse fibrosarcoma M5076 = assay: anti-tumor effect in mice inoculated subcutaneously with M5076 fibrosarcoma; assay type: in vivo, mouse (female BDF1); conditions: M5076 s.c. in mice
Procedure: The test animals used were female mice, 8 weeks old, of the BDF1 strain, weighing 20-25 g. The mice were purchased from Charles River Japan Inc., Kanagawa, Japan. The mice were divided into experimental groups, each group containing 6 mice, and all mice within each group were treated identically. Each mouse was inoculated subcutaneouly with 1×10^6viable cells (the number of cells was measured by a dye exclusion method under microscopy) of the mouse fibrosarcoma M5076.
The test compounds (80 mg) listed in the following Table, except radicicol, were dissolved in 0.2 ml of N,N-dimethylacetamide (DMA) and to the solution was added 0.2 ml of 40° C.-warmed HCO60 (polyoxyethylene hydrogenated caster oil 60). Immediately thereafter 3.6 ml of 40° C.-warmed physiological saline was added to form a colloidal solution or a suspension. The final concentration of DMA and HCO60 was 5% v/v, each. Radicicol was dissolved in […] of DMA and the solution was dispersed slowly into 3.75 ml of 10% Emulphor(trade mark)-physiological saline stirred well with a stirring rod. The final concentration of DMA was 6.25%. The solution was administered intravenously (in the case of a suspension it was administered intraperitoneally) on the first, fifth and ninth days following inoculation of the fibrosarcoma cells. The period for which the mice survived and the % inhibition of tumor growth were determined. A control group was treated identically, except that no active compound was administered.
The anti-tumor effect is shown in the following Table as the increase in life span [ILS (%)] and the growth inhibition [GI (%)], calculated from the following equations [R. I. Geran et al., Cancer Chemother. Rept., 3 (1972)]:
Dt=median survival time (days) of mice in the treated group; and
Dc=median survival time (days) of mice in the control group.
In this experiment, Dc was 40-47 days.
TDt=average value of tumor sizes on the fourteenth day in the treated group; and
TDc=average value of tumor sizes on the fourteenth day in the control group tumor size=(tumor length+tumor width )/2.

various types of tumor = assay: anti-tumor activity against various types of tumor in vivo
Excerpt: It is believed that the relative inactivity in vivo compared to the good activity in vitro may be a result of an instability of the compound to a component of the mammalian metabolism.

[1] = tested on: tumor cells of the mouse mastocytoma P-815; conditions: cited from earlier work
fungi (anti-fungal) = conditions: in words; cited from earlier work
[2] = in words; cited from earlier work
[3] = Mus musculus, 336 h, 200 mg/kg iv on days 1, 5 and 9, tumor size on day 14, read-out: growth Inhibition (%)
[4] = Mus musculus, 200 mg/kg iv on days 1, 5 and 9, median survival vs control (Dc 40-47 days), read-out: ILS (%) (increase in life span)

Row | Structure (SMILES) | inhibition in vivo at 200 mg/kg (mouse fibrosarcoma M5076; [3]) [%] | ILS at 200 mg/kg (mouse fibrosarcoma M5076; [4]) [%] | also measured
1 | CCCCCCCC/C=C\CCCCCCCC(=O)Oc1cc(OC(=O)CCCCCCC/C=C\CCCCCCCC)c2c(c1Cl)CC(=O)/C=C/C=C\[C@H]1O[C@@H]1C[C@@H](C)OC2=O [72(cis), 14,16-dioleoylradicicol] | 80 | 4 | –
2 | CCCCCCCC/C=C/CCCCCCCC(=O)Oc1cc(OC(=O)CCCCCCC/C=C/CCCCCCCC)c2c(c1Cl)CC(=O)/C=C/C=C\[C@H]1O[C@@H]1C[C@@H](C)OC2=O [72(trans), 14,16-dielaidoylradicicol] | 86 | 9 | –
3 | CCCCCCCCCCCC(=O)Oc1cc(OC(=O)CCCCCCCCCCC)c2c(c1Cl)CC(=O)/C=C/C=C\[C@H]1O[C@@H]1C[C@@H](C)OC2=O [Compound 17, 14,16-dilauroylradicicol] | 89 | 24 | –
4 | CCCCCCCCCCCCC(=O)Oc1cc(OC(=O)CCCCCCCCCCCC)c2c(c1Cl)CC(=O)/C=C/C=C\[C@H]1O[C@@H]1C[C@@H](C)OC2=O [Compound 19, 14,16-ditridecanoylradicicol] | 89 | 9 | –
5 | CCCCCCCCCCCCCC(=O)Oc1cc(OC(=O)CCCCCCCCCCCCC)c2c(c1Cl)CC(=O)/C=C/C=C\[C@H]1O[C@@H]1C[C@@H](C)OC2=O [Compound 21, 14,16-dimyristoylradicicol] | 91 | 35 | –
6 | CCCCCCCCCCCCCCC(=O)Oc1cc(OC(=O)CCCCCCCCCCCCCC)c2c(c1Cl)CC(=O)/C=C/C=C\[C@H]1O[C@@H]1C[C@@H](C)OC2=O [Compound 23, 14,16-dipentadecanoylradicicol] | 95 | 35 | –
7 | CCCCCCCCCCCCCCCC(=O)Oc1cc(OC(=O)CCCCCCCCCCCCCCC)c2c(c1Cl)CC(=O)/C=C/C=C\[C@H]1O[C@@H]1C[C@@H](C)OC2=O [Compound 25, 14,16-dipalmitoylradicicol] | 100 | 43 | –
8 | CCCCCCCCCCCCCCCCC(=O)Oc1cc(OC(=O)CCCCCCCCCCCCCCCC)c2c(c1Cl)CC(=O)/C=C/C=C\[C@H]1O[C@@H]1C[C@@H](C)OC2=O [Compound 28, 14,16-diheptadecanoylradicicol] | 95 | 27 | –
9 | CCCCCCCCCCCCCCCCCC(=O)Oc1cc(OC(=O)CCCCCCCCCCCCCCCCC)c2c(c1Cl)CC(=O)/C=C/C=C\[C@H]1O[C@@H]1C[C@@H](C)OC2=O [Compound 31, 14,16-distearoylradicicol] | – | – | inhibition in vivo at 200 mg/kg (mouse fibrosarcoma M5076; Mus musculus, 336 h, 200 mg/kg ip on days 1, 5 and 9, tumor size on day 14, read-out: growth Inhibition (%)): 66%; ILS at 200 mg/kg (mouse fibrosarcoma M5076; Mus musculus, 200 mg/kg ip on days 1, 5 and 9, median survival vs control (Dc 40-47 days), read-out: ILS (%) (increase in life span)): -4%
10 | CCCCCC/C=C\CCCCCCCC(=O)Oc1cc(OC(=O)CCCCCCC/C=C\CCCCCC)c2c(c1Cl)CC(=O)/C=C/C=C\[C@H]1O[C@@H]1C[C@@H](C)OC2=O [Compound 70, 14,16-dipalmitoleoylradicicol] | 65 | 31 | –
11 | CC/C=C\C/C=C\C/C=C\CCCCCCCC(=O)Oc1cc(OC(=O)CCCCCCC/C=C\C/C=C\C/C=C\CC)c2c(c1Cl)CC(=O)/C=C/C=C\[C@H]1O[C@@H]1C[C@@H](C)OC2=O [Compound 76, 14,16-dilinolenoylradicicol] | – | – | ILS (%) (increase in life span) (mouse fibrosarcoma M5076; 200 mg/kg iv on days 1, 5 and 9, median survival vs control (Dc 40-47 days)): 11%; growth Inhibition (%) (mouse fibrosarcoma M5076; 200 mg/kg iv on days 1, 5 and 9, tumor size on day 14): 74%
12 | C[C@@H]1C[C@H]2O[C@@H]2/C=C\C=C\C(=O)Cc2c(Cl)c(O)cc(O)c2C(=O)O1 [radicicol] | – | – | anti-tumor activity in vivo (various types of tumor): little anti-tumor activity; inhibitory effect in vitro on the growth of tumor cells [1]: strong inhibitory effect; antibiotic activity (nature of) (fungi (anti-fungal)): strictly anti-fungal; inhibition in vivo at 150 mg/kg (mouse fibrosarcoma M5076; Mus musculus, 336 h, 150 mg/kg iv on days 1, 5 and 9, tumor size on day 14, read-out: growth Inhibition (%)): 5%; ILS at 150 mg/kg (mouse fibrosarcoma M5076; Mus musculus, 150 mg/kg iv on days 1, 5 and 9, median survival vs control (Dc 40-47 days), read-out: ILS (%) (increase in life span)): -29%; effect on the central nervous system [2]: without having any effect on the central nervous system; tranquilizing activity [2]: relatively strong tranquilizing activity
